According to article PMC3025922 (BMC Biology, 2010):
Read-outs that look alike come from different tables or passages of the source.

How the values were obtained:
[1] = system: LNCaP-S14 cells; assay: MTT cytotoxicity assay, LNCaP-S14; conditions: Homo sapiens, 72 h, read-out: IC50 (MTT cytotoxicity)
Experimental: (§1) LNCaP-S14 (10,000 cells), PC3, DU145 or IMR90 cells (5000 cells) were seeded in 96-well plates and treated with increasing concentrations of the respective SMIPs for 72 h. Cell viability was assessed using the MTT cell proliferation assay (ATCC®, Middlesex, UK) according to the manufacturer's protocol. IC50 was calculated using the BioDataFit 1.02 software http://www.changbioscience.com/stat/ec50.html.

[2] = MTT cytotoxicity assay, IMR90; assay type: cell-based; conditions: human, IMR90, 0.01 - 40 μM, 72 h
Experimental: as §1

[3] = system: nuclear p27 in LNCaP-S14 cells; assay type: cell-based, human

C/C=C(/C)C(=O)O[C@H]1C(C)=C2[C@H]([C@@H]1OC(=O)CCCCCCC)[C@@](C)(OC(C)=O)C[C@H](OC(=O)CCC)[C@@]1(O)[C@H]2OC(=O)[C@@]1(C)O [Thapsigargin, reference compound]
IC50 [1]: 7.8 nM
IC50 [2]: 31 nM
hit in primary screen (increased percentage of p27 positive cells) ([3]; LNCaP-S14, ~5 to 35 μM, 18 h): identified

COc1cc([C@@H]2c3cc4c(cc3[C@@H](O[C@@H]3O[C@@H]5CO[C@@H](C)O[C@H]5[C@H](O)[C@H]3O)[C@H]3COC(=O)[C@H]23)OCO4)cc(OC)c1O [etoposide, reference compound]
hit in primary screen (increased percentage of p27 positive cells) ([3]; LNCaP-S14, ~5 to 35 μM, 18 h): identified

CO[C@@]12[C@H](COC(N)=O)C3=C(C(=O)C(C)=C(N)C3=O)N1C[C@@H]1N[C@@H]12 [mitomycin C, reference compound]
hit in primary screen (increased percentage of p27 positive cells) [3]: identified

CC[C@H](CO)Nc1nc(NCc2ccccc2)c2ncn(C(C)C)c2n1 [roscovitine, reference compound]
percentage of p27 positive cells [3]: up to 50%
